Measured values: patent US8546588B2, “Substituted hydroxamic acids and uses thereof” (Millennium Pharmaceuticals, Inc., priority 2010, dated 2013)

These compounds were tested against T1, purified human HDAC6 (Homo sapiens, UniProt Q9UBN7) (assay: HDAC6 Enzyme Assay). Details: substrate Ac-Arg-Gly-Lys(Ac)-AMC peptide, 1 hour at 30° C.
T1 construct: purchased BPS Bioscience 5006
T1 sequence (Q9UBN7 1-1215): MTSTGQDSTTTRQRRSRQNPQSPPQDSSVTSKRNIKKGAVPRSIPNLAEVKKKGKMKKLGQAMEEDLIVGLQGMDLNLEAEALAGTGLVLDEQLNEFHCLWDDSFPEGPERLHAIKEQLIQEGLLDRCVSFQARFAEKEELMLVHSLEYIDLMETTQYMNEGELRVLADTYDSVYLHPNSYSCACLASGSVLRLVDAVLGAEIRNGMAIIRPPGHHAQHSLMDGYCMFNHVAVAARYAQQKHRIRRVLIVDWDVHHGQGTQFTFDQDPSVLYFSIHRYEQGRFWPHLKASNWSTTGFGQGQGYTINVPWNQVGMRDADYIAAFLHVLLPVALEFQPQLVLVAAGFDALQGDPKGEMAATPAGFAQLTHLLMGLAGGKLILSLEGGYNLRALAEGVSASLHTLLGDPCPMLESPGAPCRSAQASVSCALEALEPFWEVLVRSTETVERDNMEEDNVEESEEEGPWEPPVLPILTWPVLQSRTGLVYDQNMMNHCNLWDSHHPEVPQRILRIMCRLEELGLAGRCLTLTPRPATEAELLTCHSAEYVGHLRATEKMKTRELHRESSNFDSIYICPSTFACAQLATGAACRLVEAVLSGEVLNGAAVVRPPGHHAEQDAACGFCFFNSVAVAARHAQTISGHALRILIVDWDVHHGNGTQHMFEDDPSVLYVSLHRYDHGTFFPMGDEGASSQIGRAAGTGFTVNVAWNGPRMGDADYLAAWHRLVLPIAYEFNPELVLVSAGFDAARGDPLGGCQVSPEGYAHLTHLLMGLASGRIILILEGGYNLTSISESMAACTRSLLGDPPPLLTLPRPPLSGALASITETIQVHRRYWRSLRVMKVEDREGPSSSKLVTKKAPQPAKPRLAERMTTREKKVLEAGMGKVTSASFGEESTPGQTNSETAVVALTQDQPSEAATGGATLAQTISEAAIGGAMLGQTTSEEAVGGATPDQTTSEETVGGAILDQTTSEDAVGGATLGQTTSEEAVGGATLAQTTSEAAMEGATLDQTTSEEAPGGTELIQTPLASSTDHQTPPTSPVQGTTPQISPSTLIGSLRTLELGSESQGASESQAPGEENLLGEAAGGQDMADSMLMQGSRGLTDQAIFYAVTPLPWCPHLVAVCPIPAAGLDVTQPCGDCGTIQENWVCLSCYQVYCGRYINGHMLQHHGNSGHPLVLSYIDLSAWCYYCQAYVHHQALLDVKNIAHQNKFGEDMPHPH
Type: biochemical
Method: To measure the inhibition of HDAC6 activity, purified human HDAC6 (BPS Bioscience; Cat. No. 5006) is incubated with substrate Ac-Arg-Gly-Lys(Ac)-AMC peptide (Bachem Biosciences; Cat. No. I-1925) for 1 hour at 30° C. in the presence of test compounds or vehicle DMSO control. The reaction is stopped with the HDAC inhibitor trichostatin A (Sigma; Cat. No. T8552) and the amount of Arg-Gly-Lys-AMC generated is quantitated by digestion with trypsin (Sigma; Cat. No. T1426) and subsequent measurement of the amount of AMC released using a fluorescent plate reader (Pherastar; BMG Technologies) set at Ex 340 nm and Em 460 nm. Concentration response curves are generated by calculating the fluorescence increase in test compound-treated samples relative to DMSO-treated controls, and enzyme inhibition (IC50) values are determined from those curves.

SMILES	IC50 [nM]
C[C@@H](NC(=O)C12CC3CC(CC(C3)C1)C2)c1ccc(C(=O)NO)s1 [Compound I-11, 5-{(1R)-1-[(1-adamantylcarbonyl)amino]ethyl}-N-hydroxythiophene-2-carboxamide]	> 500
CC(NS(=O)(=O)c1ccccc1F)c1ccc(C(=O)NO)s1 (centres unmarked) [Compound I-47, 5-(1-{[(2-fluorophenyl)sulfonyl]amino}ethyl)-N-hydroxythiophene-2-carboxamide]	100 to 500
CC(NC(=O)NC1CCCC1)c1ccc(C(=O)NO)s1 (centres unmarked) [Compound I-1, 5-(1-(3-cyclopentylureido)ethyl)-N-hydroxythiophene-2-carboxamide]	< 100
C[C@@H](NC(=O)C1(C)CCCCC1)c1ncc(C(=O)NO)s1 [Compound I-162, N-hydroxy-2-((1R)-1-{[(1-methylcyclohexyl)carbonyl]amino}ethyl)-1,3-thiazole-5-carboxamide]	> 500
C[C@@H](NC(=O)C(C)(C)C)c1ccc(C(=O)NO)s1 [Compound I-6, 5-{(1R)-1-[(2,2-dimethylpropanoyl)amino]ethyl}-N-hydroxythiophene-2-carboxamide]	> 500
C[C@H](NC(=O)c1cc2ccccc2s1)c1ncc(C(=O)NO)s1 [Compound I-180, 2-{(1S)-1-[(1-benzothien-2-ylcarbonyl)amino]ethyl}-N-hydroxy-1,3-thiazole-5-carboxamide]	< 100
CC(NC(=O)Nc1ccc(Cl)c(C(F)(F)F)c1)c1ccc(C(=O)NO)s1 (centres unmarked) [Compound I-10, 5-{1-[({[4-chloro-3-(trifluoromethyl)phenyl]amino}carbonyl)amino]ethyl}-N-hydroxythiophene-2-carboxamide]	< 100
C[C@@H](NC(=O)C1(C)CCCCC1)c1ccc(C(=O)NO)s1 [Compound I-43, N-hydroxy-5-((1R)-1-{[(1-methylcyclohexyl)carbonyl]amino}ethyl)thiophene-2-carboxamide]	> 500
Cc1noc(-c2ccccc2)c1NC(=O)NC(C)c1ccc(C(=O)NO)s1 (centres unmarked) [Compound I-41, N-hydroxy-5-[1-({[(3-methyl-5-phenylisoxazol-4-yl)amino]carbonyl}amino)ethyl]thiophene-2-carboxamide]	100 to 500
C[C@H](NC(=O)c1nc2ccccc2n1C)c1ncc(C(=O)NO)s1 [Compound I-173, N-((1S)-1-{5-[(hydroxyamino)carbonyl]-1,3-thiazol-2-yl}ethyl)-1-methyl-1H-benzimidazole-2-carboxamide]	< 100
C[C@H](NC(=O)C(C)(C)C)c1ncc(C(=O)NO)s1 [Compound I-183, 2-{(1S)-1-[(2,2-dimethylpropanoyl)amino]ethyl}-N-hydroxy-1,3-thiazole-5-carboxamide]	> 500
COc1ccc(C(=O)N[C@H](C)c2ncc(C(=O)NO)s2)cc1 [Compound I-169, N-hydroxy-2-{(1R)-1-[(4-methoxybenzoyl)amino]ethyl}-1,3-thiazole-5-carboxamide]	100 to 500
CC(NC(=O)Nc1ccc(C(C)(C)C)cc1)c1ccc(C(=O)NO)s1 (centres unmarked) [Compound I-36, 5-[1-({[(4-tert-butylphenyl)amino]carbonyl}amino)ethyl]-N-hydroxythiophene-2-carboxamide]	< 100
COc1ccc(C(=O)N[C@H](C)c2cc(C(=O)NO)on2)cc1 [Compound I-164, N-hydroxy-3-{(1R)-1-[(4-methoxybenzoyl)amino]ethyl}isoxazole-5-carboxamide]	> 500
C[C@@H](NC(=O)c1cc2ccccc2s1)c1cc(C(=O)NO)on1 [Compound I-176, 3-{(1R)-1-[(1-benzothien-2-ylcarbonyl)amino]ethyl}-N-hydroxyisoxazole-5-carboxamide]	> 500
C[C@@H](NC(=O)C(C)(C)C)c1cc(C(=O)NO)on1 [Compound I-182, 3-{(1R)-1-[(2,2-dimethylpropanoyl)amino]ethyl}-N-hydroxyisoxazole-5-carboxamide]	> 500

SMILES	IC50 [nM]
COc1ccc(C(=O)N[C@H](C)c2ccc(C(=O)NO)s2)cc1 [Compound I-9, N-hydroxy-5-{(1R)-1-[(4-methoxybenzoyl)amino]ethyl}thiophene-2-carboxamide]	< 100
COc1ccc(C(=O)N[C@@H](C)c2ncc(C(=O)NO)s2)cc1 [Compound I-175, N-hydroxy-2-{(1S)-1-[(4-methoxybenzoyl)amino]ethyl}-1,3-thiazole-5-carboxamide]	100 to 500
Cc1ccccc1NC(=O)NC(C)c1ccc(C(=O)NO)s1 (centres unmarked) [Compound I-40, N-hydroxy-5-[1-({[(2-methylphenyl)amino]carbonyl}amino)ethyl]thiophene-2-carboxamide]	< 100
Cc1c(C(=O)N[C@H](C)c2ccc(C(=O)NO)s2)sc2ccccc12 [Compound I-31, N-((1R)-1-{5-[(hydroxyamino)carbonyl]-2-thienyl}ethyl)-3-methyl-1-benzothiophene-2-carboxamide]	< 100
C[C@@H](NC(=O)c1cc2ccccc2n1C)c1ccc(C(=O)NO)s1 [Compound I-5, N-((1R)-1-{5-[(hydroxyamino)carbonyl]-2-thienyl}ethyl)-1-methyl-1H-indole-2-carboxamide]	< 100
CC(NS(=O)(=O)c1ccccc1)c1ccc(C(=O)NO)s1 (centres unmarked) [Compound I-48, N-hydroxy-5-{1-[(phenylsulfonyl)amino]ethyl}thiophene-2-carboxamide]	100 to 500
C[C@H](NC(=O)c1ccc(-c2ccccc2)cc1)c1ncc(C(=O)NO)s1 [Compound I-161, 2-{(1S)-1-[(biphenyl-4-ylcarbonyl)amino]ethyl}-N-hydroxy-1,3-thiazole-5-carboxamide]	< 100
Cc1cccc(C)c1NC(=O)NC(C)c1ccc(C(=O)NO)s1 (centres unmarked) [Compound I-32, 5-[1-({[(2,6-dimethylphenyl)amino]carbonyl}amino)ethyl]-N-hydroxythiophene-2-carboxamide]	100 to 500
C[C@H](NC(=O)C12CC3CC(CC(C3)C1)C2)c1ncc(C(=O)NO)s1 [Compound I-179, 2-((1S)-1-{[1-adamantylcarbonyl]amino}ethyl)-N-hydroxy-1,3-thiazole-5-carboxamide]	> 500
Cc1cccc(NC(=O)NC(C)c2ccc(C(=O)NO)s2)c1 (centres unmarked) [Compound I-30, N-hydroxy-5-[1-({[(3-methylphenyl)amino]carbonyl}amino)ethyl]thiophene-2-carboxamide]	< 100
CC(NC(=O)Nc1ccc(OC(F)(F)F)cc1)c1ccc(C(=O)NO)s1 (centres unmarked) [Compound I-22, N-hydroxy-5-{1-[({[4-(trifluoromethoxy)phenyl]amino}carbonyl)amino]ethyl}thiophene-2-carboxamide]	< 100
CC(NC(=O)Nc1ccc(OC(F)F)cc1)c1ccc(C(=O)NO)s1 (centres unmarked) [Compound I-37, 5-{1-[({[4-(difluoromethoxy)phenyl]amino}carbonyl)amino]ethyl}-N-hydroxythiophene-2-carboxamide]	< 100
C[C@@H](NC(=O)C(C)(C)C)c1ncc(C(=O)NO)s1 [Compound I-166, 2-{(1R)-1-[(2,2-dimethylpropanoyl)amino]ethyl}-N-hydroxy-1,3-thiazole-5-carboxamide]	> 500
C[C@@H](NC(=O)NC(C)(C)C)c1ccc(C(=O)NO)s1 [Compound I-8, 5-((1R)-1-{[(tert-butylamino)carbonyl]amino}ethyl)-N-hydroxythiophene-2-carboxamide]	100 to 500
C[C@@H](NC(=O)c1cc(Cl)c(Cl)n1C)c1ccc(C(=O)NO)s1 [Compound I-17, 4,5-dichloro-N-((1R)-1-{5-[(hydroxyamino)carbonyl]-2-thienyl}ethyl)-1-methyl-1H-pyrrole-2-carboxamide]	< 100
Cc1ccccc1CNC(=O)NC(C)c1ccc(C(=O)NO)s1 (centres unmarked) [Compound I-42, N-hydroxy-5-[1-({[(2-methylbenzyl)amino]carbonyl}amino)ethyl]thiophene-2-carboxamide]	< 100
